Where two headings read alike, the source gives them in different places.
Columns and labels:
Hep G2 = assay: Cytotoxicity assay (MTT), Hep G2 cell line; assay type: cell-based; conditions: 24 h
Summary of the method: (§1)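 Viability was read as MTT-formazan absorbance at 490 nm after 0.5-2 h with reagent. This followed 24 h compound exposure (50 μM, 12.5 μM) at 37° C in RPM medium. Result expressed as OD490 treated over untreated cells ×100.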

TNF-α [1] = assay: Lipopolysaccharide induced TNF-α production in Balb/cJ mice; assay type: in vivo; conditions: Mus musculus, ip, 1.5 h; 10 mg/kg intraperitoneally, 30 min before LPS; 90 min after LPS; read-out: % inhibition of TNF-α production (plasma)
[2] = tested on: human peripheral blood mononuclear cells (PBMC); assay: Effects on human T-cell proliferation in vitro (3H-thymidine incorporation); assay type: cell-based; conditions: Homo sapiens, PBMC, read-out: Percentage of inhibition of proliferation of stimulated PBMC
Summary of the method: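 Proliferation of human peripheral blood mononuclear cells (PBMC) was assessed in the presence of test compounds. During the final 18 h of culture each well received 1 μCi of ^3H-thymidine. Cells were then collected onto a 96-well filter with a multiple cell harvester, and ^3H-thymidine incorporation was counted on a TopCount NXT to give percentage inhibition of proliferation.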

IL-6 = assay: Inhibition of IL-6 production by stimulated human peripheral blood leukocytes in vitro; assay type: cell-based; conditions: Homo sapiens, Leukocyte, read-out: Percentage of inhibition of IL-6 production
Summary of the method: (§2)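 Sandwich ELISA of supernatant cytokines; % inhibition = (1 − sample/stimulated untreated control)×100. Dextran-isolated human PBL were pretreated 2 h with 10 or 50 μM compound, then challenged overnight with LPS (2 μg/mL), PMA (1 μg/mL) or zymosan (120 μg/mL).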

TNF-α [3] = assay: Inhibition of TNF-α production by stimulated human peripheral blood leukocytes in vitro; assay type: cell-based; conditions: Homo sapiens, Leukocyte, read-out: Percentage of inhibition of TNF-α production
Summary of the method: as §2

A549 = assay: Cytotoxicity assay (MTT), A549 cell line; assay type: cell-based; conditions: 24 h
Summary of the method: as §1

IL-8 = assay: Inhibition of IL-8 production by stimulated human peripheral blood leukocytes in vitro; assay type: cell-based; conditions: Homo sapiens, Leukocyte, read-out: Percentage of inhibition of IL-8 production
Summary of the method: as §2

IL-1α = assay: Inhibition of IL-1 production by stimulated human peripheral blood leukocytes in vitro; assay type: cell-based; conditions: Homo sapiens, Leukocyte, read-out: Percentage of inhibition of IL-1α production

SMILES | Percentage of inhibition of cell growth (Hep G2; 12.5 μM) [%] | Percentage of inhibition of cell growth (Hep G2; 50 μM) [%] | inhibition in vivo at 10 mg/kg (TNF-α [1]) [%] | inhibition at 10 µM (IL-6; LPS-stimulated PBL) [%] | inhibition at 10 µM (IL-6; PMA-stimulated PBL) [%] | inhibition at 10 µM (IL-6; zymosan-stimulated PBL) [%] | inhibition at 50 µM (IL-6; LPS-stimulated PBL) [%] | inhibition at 50 µM (IL-6; PMA-stimulated PBL) [%] | inhibition at 50 µM (IL-6; zymosan-stimulated PBL) [%] | inhibition at 10 µM (TNF-α [3]; LPS-stimulated PBL) [%] | inhibition at 10 µM (TNF-α [3]; PMA-stimulated PBL) [%] | inhibition at 10 µM (TNF-α [3]; zymosan-stimulated PBL) [%] | inhibition at 50 µM (TNF-α [3]; LPS-stimulated PBL) [%] | inhibition at 50 µM (TNF-α [3]; PMA-stimulated PBL) [%] | inhibition at 50 µM (TNF-α [3]; zymosan-stimulated PBL) [%] | Percentage of inhibition of cell growth (A549; 12.5 μM) [%] | Percentage of inhibition of cell growth (A549; 50 μM) [%] | inhibition at 10 µM (IL-8; LPS-stimulated PBL) [%] | inhibition at 10 µM (IL-8; PMA-stimulated PBL) [%] | inhibition at 10 µM (IL-8; zymosan-stimulated PBL) [%] | further results
CC[C@H]1OC(=O)[C@H](C)[C@@H](O[C@H]2C[C@@](C)(OC)[C@@H](OC(=O)CCN3CCCN(CCCN4CCCC4)CC3)[C@H](C)O2)[C@H](C)[C@@H](O[C@@H]2O[C@H](C)C[C@H](N(C)C)[C@H]2O)[C@](C)(OC)C[C@@H](C)C(=O)N[C@H](C)[C@@H](O)[C@]1(C)O [Example 34] | 7 | 1 | 78 | 28 | 66 | 66 | 91 | 95 | 99 | 55 | 86 | 65 | 96 | 100 | 100 | 0 | 1 | 21 | 33 | 32 | inhibition at 10 µM ([2]; PHA): 66%; inhibition at 50 µM ([2]; PHA): 99%; inhibition at 10 µM ([2]; PMA + iono.): 0%; inhibition at 50 µM ([2]; PMA + iono.): 87%; inhibition at 50 µM (IL-8; LPS-stimulated PBL): 87%; inhibition at 50 µM (IL-8; PMA-stimulated PBL): 76%; inhibition at 50 µM (IL-8; zymosan-stimulated PBL): 81%; inhibition at 10 µM (IL-1α; LPS-stimulated PBL): 69%; inhibition at 10 µM (IL-1α; PMA-stimulated PBL): 86%; inhibition at 10 µM (IL-1α; zymosan-stimulated PBL): 77%; inhibition at 50 µM (IL-1α; LPS-stimulated PBL): 82%; inhibition at 50 µM (IL-1α; PMA-stimulated PBL): 100%; inhibition at 50 µM (IL-1α; zymosan-stimulated PBL): 99%
CC[C@H]1OC(=O)[C@H](C)[C@@H](O[C@H]2C[C@@](C)(OC)[C@@H](OC(=O)CCN(CC)CC)[C@H](C)O2)[C@H](C)[C@@H](O[C@@H]2O[C@H](C)C[C@H](NC)[C@H]2O)[C@](C)(OC)C[C@@H](C)C(=O)N[C@H](C)[C@@H](O)[C@]1(C)O [Example 54, 3′-N-Demethyl-4″-O-(3-diethylaminopropionyl)-6-O-methyl-9a-aza-9a-homoerythromycin A] | 1 | 2 | 58 | 0 | 0 | 9 | 58 | 71 | 87 | 3 | 25 | 11 | 55 | 96 | 92 | 0 | 0 | 0 | 0 | 0 | inhibition at 50 µM (IL-8; LPS-stimulated PBL): 82%; inhibition at 50 µM (IL-8; PMA-stimulated PBL): 40%; inhibition at 50 µM (IL-8; zymosan-stimulated PBL): 53%; inhibition at 10 µM (IL-1α; LPS-stimulated PBL): 60%; inhibition at 10 µM (IL-1α; PMA-stimulated PBL): 62%; inhibition at 10 µM (IL-1α; zymosan-stimulated PBL): 56%; inhibition at 50 µM (IL-1α; LPS-stimulated PBL): 69%; inhibition at 50 µM (IL-1α; PMA-stimulated PBL): 97%; inhibition at 50 µM (IL-1α; zymosan-stimulated PBL): 98%

Reference: patent publication US8080529B2, “Macrolides with anti-inflammatory activity” (Glaxo Group Limited, priority 2005, dated 2011)
